Test results taken from ChEMBL document CHEMBL1687927, “Design and optimization of potent and orally bioavailable tetrahydronaphthalene Raf inhibitors” (J Med Chem, 2011).
Active and inactive are the calls of the source. No cut-off for these calls is given here.

Key:
[1] = molecular target: T1, Serine/threonine-protein kinase B-raf (Homo sapiens, UniProt P15056, V600E)
[2] = molecular target: T1, Serine/threonine-protein kinase B-raf; experiment: Inhibition of raf kinase in human A375 cells assessed as decrease in MEK-mediated ERK phosphorylation after 3 hrs using 3,3',5,5'-tetramethylbenzidine liquid substrate system; type: cell-based; conditions: a-375
[3] = molecular target: RAF proto-oncogene serine/threonine-protein kinase (Homo sapiens, UniProt P04049); experiment: Inhibition of C-Raf assessed as reduction in [33P]ATP incorporation into biotinylated substrate peptide after 3 hrs by flash plate assay
Mus musculus [4] = experiment: Plasma clearance in mouse at 1 mg/kg, iv and 10 mg, po in 10% HPbCD vehicle; type: ADME, organism-based; set-up: dose 1 mg/kg, route oral; conditions: in vivo
[5] = Oral bioavailability in mouse at 10 mg; type: ADME, organism-based; conditions: in vivo
[6] = AUC (0 to 24 hrs) in mouse at 10 mg, po in 10% HPbCD vehicle; type: ADME, organism-based; set-up: time < 24 hr, dose 10 mg, route oral; conditions: plasma
Mus musculus [7] = experiment: Volume of distribution at steady state in mouse at 1 mg/kg, iv or 10 mg, po; type: ADME, organism-based; set-up: dose 1 mg/kg, route oral; conditions: in vivo
[8] = Plasma concentration in mouse xenografted with human A375M cells at 75 mg/kg, po administered as single dose in 10% HPbCD measured 24 hrs post dose by LC/MS/MS; type: ADME, organism-based; set-up: dose 75 mg/kg, route oral
Homo sapiens [9] = experiment: Antitumor activity against human A375M cells xenografted mouse model assessed as partial tumor regression at 75 mg/kg, po qd for 21 days; type: functional, organism-based; set-up: dose 75 mg/kg
Mus musculus [10] = experiment: Inhibition of ERK phosphorylation in human A375M cells xenografted in mouse at 75 mg/kg, po administered as single dose in 10% HPbCD measured 24 hrs post dose by Li-Cor quantitative Western blot analysis relative to control; type: functional
[11] = Inhibition of PDGFR
Mus musculus [12] = experiment: Inhibition of ERK phosphorylation in human A375M cells xenografted in mouse at 75 mg/kg, po administered as single dose in 10% HPbCD measured 8 hrs post dose by Li-Cor quantitative Western blot analysis relative to control; type: functional
[13] = Plasma concentration in mouse xenografted with human A375M cells at 75 mg/kg, po administered as single dose in 10% HPbCD measured 8 hrs post dose by LC/MS/MS; type: ADME, organism-based; set-up: dose 75 mg/kg, route oral
Mus musculus [14] = experiment: Inhibition of ERK phosphorylation in human A375M cells xenografted in mouse at 75 mg/kg, po administered as single dose in 10% HPbCD measured 4 hrs post dose by Li-Cor quantitative Western blot analysis relative to control; type: functional
[15] = Inhibition of MEK
[16] = Plasma concentration in mouse xenografted with human A375M cells at 75 mg/kg, po administered as single dose in 10% HPbCD measured 4 hrs post dose by LC/MS/MS; type: ADME, organism-based; set-up: dose 75 mg/kg, route oral
[17] = Plasma clearance in mouse at 10 mg, po in 20% HPbCD vehicle; type: ADME, organism-based
[18] = AUC (0 to 24 hrs) in mouse at 10 mg, po in 20% HPbCD vehicle; type: ADME, organism-based; set-up: dose 10 mg, time < 24 hr, route oral; conditions: plasma
[19] = Plasma concentration in mouse xenografted with human A375M cells at 100 mg/kg, po administered as single dose in 10% HPbCD measured 8 hrs post dose by LC/MS/MS; type: ADME, organism-based; set-up: dose 100 mg/kg, route oral
Homo sapiens [20] = experiment: Antitumor activity against human A375M cells xenografted mouse model assessed as partial tumor regression at 100 mg/kg, po qd for 21 days; type: functional, organism-based; set-up: dose 100 mg/kg
[21] = Plasma concentration in mouse xenografted with human A375M cells at 100 mg/kg, po administered as single dose in 10% HPbCD measured 24 hrs post dose by LC/MS/MS; type: ADME, organism-based; set-up: dose 100 mg/kg, route oral
Plasma = experiment: Plasma concentration in mouse assessed as (R)-3-((methyl amino)methyl)-N-(7-(7-oxo-5,6,7,8-tetrahydro-1,8-naphthyridin-4-yloxyl)-1,2,3,4-tetrahydronaphthalen-2-yl )-5-(trifluoromethyl)benzamide at 10 mg, po; type: ADME, organism-based; conditions: in vivo
Mus musculus [22] = experiment: Inhibition of ERK phosphorylation in human A375M cells xenografted in mouse at 100 mg/kg, po administered as single dose in 10% HPbCD measured 4 hrs post dose by Li-Cor quantitative Western blot analysis relative to control; type: functional
[23] = Plasma concentration in mouse xenografted with human A375M cells at 100 mg/kg, po administered as single dose in 10% HPbCD measured 4 hrs post dose by LC/MS/MS; type: ADME, organism-based; set-up: dose 100 mg/kg, route oral
Mus musculus [24] = experiment: Inhibition of ERK phosphorylation in human A375M cells xenografted in mouse at 100 mg/kg, po administered as single dose in 10% HPbCD measured 24 hrs post dose by Li-Cor quantitative Western blot analysis relative to control; type: functional
Mus musculus [25] = experiment: Inhibition of ERK phosphorylation in human A375M cells xenografted in mouse at 100 mg/kg, po administered as single dose in 10% HPbCD measured 8 hrs post dose by Li-Cor quantitative Western blot analysis relative to control; type: functional

Chain of RAF proto-oncogene serine/threonine-protein kinase (P04049 whole entry): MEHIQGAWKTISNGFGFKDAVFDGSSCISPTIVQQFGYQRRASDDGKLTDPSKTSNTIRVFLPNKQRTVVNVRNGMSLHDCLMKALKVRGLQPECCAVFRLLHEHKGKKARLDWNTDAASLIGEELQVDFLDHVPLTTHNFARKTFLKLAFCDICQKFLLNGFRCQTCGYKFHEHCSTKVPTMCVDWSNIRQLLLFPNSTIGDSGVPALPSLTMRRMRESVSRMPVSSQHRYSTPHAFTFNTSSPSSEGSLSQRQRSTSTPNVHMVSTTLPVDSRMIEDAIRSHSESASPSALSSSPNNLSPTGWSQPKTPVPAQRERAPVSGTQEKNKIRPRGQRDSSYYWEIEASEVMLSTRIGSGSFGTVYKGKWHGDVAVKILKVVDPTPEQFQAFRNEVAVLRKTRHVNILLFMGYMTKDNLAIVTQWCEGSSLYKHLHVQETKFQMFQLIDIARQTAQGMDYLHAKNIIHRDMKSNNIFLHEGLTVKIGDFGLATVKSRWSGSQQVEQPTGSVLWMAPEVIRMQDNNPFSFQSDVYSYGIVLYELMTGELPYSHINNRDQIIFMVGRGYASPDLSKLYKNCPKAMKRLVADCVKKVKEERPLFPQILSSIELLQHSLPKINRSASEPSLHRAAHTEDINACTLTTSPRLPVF
T1 sequence (P15056 2-766 V600E limits assumed): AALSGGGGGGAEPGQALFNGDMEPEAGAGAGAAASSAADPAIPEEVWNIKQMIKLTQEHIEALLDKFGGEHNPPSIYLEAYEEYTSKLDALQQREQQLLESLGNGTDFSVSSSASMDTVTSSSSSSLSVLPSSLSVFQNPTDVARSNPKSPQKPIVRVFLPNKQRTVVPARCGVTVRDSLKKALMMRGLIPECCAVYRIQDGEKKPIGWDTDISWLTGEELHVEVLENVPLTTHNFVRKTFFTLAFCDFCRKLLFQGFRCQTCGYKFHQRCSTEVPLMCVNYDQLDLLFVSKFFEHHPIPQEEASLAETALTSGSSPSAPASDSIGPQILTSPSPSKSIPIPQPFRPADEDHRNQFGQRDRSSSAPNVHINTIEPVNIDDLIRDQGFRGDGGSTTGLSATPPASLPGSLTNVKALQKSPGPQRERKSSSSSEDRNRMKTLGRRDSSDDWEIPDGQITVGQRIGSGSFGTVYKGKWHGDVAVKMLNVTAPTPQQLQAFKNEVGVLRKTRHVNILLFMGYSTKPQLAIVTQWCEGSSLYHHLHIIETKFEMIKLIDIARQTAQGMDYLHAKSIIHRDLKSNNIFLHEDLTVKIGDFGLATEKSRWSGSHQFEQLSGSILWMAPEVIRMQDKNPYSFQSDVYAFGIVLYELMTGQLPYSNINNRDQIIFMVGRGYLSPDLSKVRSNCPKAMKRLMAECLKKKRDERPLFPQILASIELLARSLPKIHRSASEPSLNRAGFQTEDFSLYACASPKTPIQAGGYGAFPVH

Row | SMILES | IC50 [1] [nM] | IC50 [2] [nM] | IC50 [3] [nM] | bioavailability [5] [%] | Vdss (Mus musculus [7]) [L/kg] | other results
1 | CNC(=O)c1cc(Oc2ccc3c(c2)CC(C(=O)Nc2ccc(CN)c(C(F)(F)F)c2)CC3)ccn1 (stereo unspecified) | 26 | 5000 | 16 |  |  | 
2 | CC(=O)Nc1cc(Oc2ccc3c(c2)C[C@@H](C(=O)Nc2cc(CN)cc(C(F)(F)F)c2)CC3)ccn1 |  |  | 6 |  |  | 
3 | CNCc1cc(C(=O)N[C@@H]2CCc3ccc(Oc4ccnc5c4CCC(=O)N5)cc3C2)cc(C(F)(F)F)c1 |  |  |  | 50 | 0.75 | CL (Mus musculus [4]): 12.2 mL/min/kg; AUC(0-t) at 24 h [6]: 12.4 µM·h
4 | CC(C)NCc1cc(NC(=O)[C@H]2CCc3ccc(Oc4ccnc5c4CCC(=O)N5)cc3C2)cc(C(F)(F)F)c1 | 3.3 | 110 |  | 20 | 3.87 | CL (Mus musculus [4]): 5.33 mL/min/kg; AUC(0-t) at 24 h [6]: 20.7 µM·h
5 | CNC(=O)c1cc(Oc2ccc3c(c2)CC(C(=O)Nc2ccc(Cl)c(C(F)(F)F)c2)CC3)ccn1 (racemic) | 32 | 2900 | 28 |  |  | 
6 | CC(C)(N)c1cc(C(=O)N[C@@H]2CCc3ccc(Oc4ccnc5c4CCC(=O)N5)cc3C2)cc(C(F)(F)F)c1 |  |  |  | 85 | 3.93 | concentration at 24 h [8]: 3 µM; Activity (Homo sapiens [9]): Active; CL (Mus musculus [4]): 7.33 mL/min/kg; inhibition in vivo at 75 mg/kg (Mus musculus [10]): 83%; IC50 [11]: 47 nM; AUC(0-t) at 24 h [6]: 35.9 µM·h; inhibition in vivo at 75 mg/kg (Mus musculus [12]): 90%; concentration at 8 h [13]: 27 µM; inhibition in vivo at 75 mg/kg (Mus musculus [14]): 87%; IC50 [15]: 1400 nM; concentration at 4 h [16]: 23 µM
7 | CNC(=O)c1cc(Oc2cccc(CCC(=O)Nc3ccc(Cl)c(C(F)(F)F)c3)c2)ccn1 | 47 | > 25000 | 9 |  |  | 
8 | NCc1cc(NC(=O)[C@@H]2CCc3ccc(Oc4ccnc(NC(=O)C5CC5)c4)cc3C2)cc(C(F)(F)F)c1 | 6 | 780 | 6 |  |  | 
9 | NCc1cc(NC(=O)C2CCc3ccc(Oc4ccnc(NC(=O)C5CC5)c4)cc3C2)cc(C(F)(F)F)c1 (stereo unspecified) | 8 | 150 | 6.2 | 1.9 | 6.4 | CL/F [17]: 6.67 mL/min/kg; AUC(0-t) at 24 h [18]: 0.58 µM·h
10 | CNC(=O)c1cc(Oc2ccc(CCC(=O)Nc3ccc(Cl)c(C(F)(F)F)c3)cc2)ccn1 | 61 | > 25000 | 10 |  |  | 
11 | CN(C)Cc1cc(NC(=O)[C@H]2CCc3ccc(Oc4ccnc(NC(=O)C5CC5)c4)cc3C2)cc(C(F)(F)F)c1 | 4 | 130 | 3.3 | 27 | 6.07 | CL/F [17]: 23.5 mL/min/kg; AUC(0-t) at 24 h [18]: 2.87 µM·h
12 | CC(C)NCc1cc(NC(=O)C2CCc3ccc(Oc4ccnc(NC(=O)C5CC5)c4)cc3C2)cc(C(F)(F)F)c1 (stereo unspecified) | 5 | 190 | 4.6 |  |  | AUC(0-t) at 24 h [18]: 15.6 µM·h
13 | NCc1cc(NC(=O)[C@H]2CCc3ccc(Oc4ccnc(NC(=O)C5CC5)c4)cc3C2)cc(C(F)(F)F)c1 | 5 | 130 | 4.5 |  |  | 
14 | CN(C)Cc1cc(C(=O)N[C@@H]2CCc3ccc(Oc4ccnc(NC(=O)C5CC5)c4)cc3C2)cc(C(F)(F)F)c1 | 2.9 | 70 |  | 22 | 2.19 | CL (Mus musculus [4]): 35.7 mL/min/kg; AUC(0-t) at 24 h [6]: 0.51 µM·h
15 | CN(C)Cc1cc(C(=O)N[C@@H]2CCc3ccc(Oc4ccnc5c4CCC(=O)N5)cc3C2)cc(C(F)(F)F)c1 |  |  |  | 100 | 0.75 | concentration at 8 h [19]: 29 µM; Activity (Homo sapiens [20]): Active; CL (Mus musculus [4]): 3.83 mL/min/kg; concentration at 24 h [21]: 0.4 µM; IC50 [11]: 1100 nM; Drug uptake (Plasma): 30%; inhibition in vivo at 100 mg/kg (Mus musculus [22]): 93%; AUC(0-t) at 24 h [6]: 98.6 µM·h; concentration at 4 h [23]: 28 µM; inhibition in vivo at 100 mg/kg (Mus musculus [24]): 72%; inhibition in vivo at 100 mg/kg (Mus musculus [25]): 92%; IC50 [15]: > 10000 nM
16 | CNC(=O)c1cc(Oc2ccc3c(c2)CC(C(=O)Nc2cc(CN)cc(C(F)(F)F)c2)CC3)ccn1 (stereo unspecified) | 20 | 1400 | 11 |  |  | 
17 | CC(C)(N)c1cc(NC(=O)[C@H]2CCc3ccc(Oc4ccnc5c4CCC(=O)N5)cc3C2)cc(C(F)(F)F)c1 |  | 79 |  |  |  | 
18 | CN(C)Cc1cc(C(=O)N[C@H]2CCc3ccc(Oc4ccnc(NC(=O)C5CC5)c4)cc3C2)cc(C(F)(F)F)c1 | 3.2 | 1100 |  |  |  | 
